# System: immunocompetent FVB mice
# Experiment: Tolerability study in immunocompetent mice
# Type: in vivo
# Description: Five- to six-week-old immunocompetent, female FVB mice were purchased from Charles River Laboratories (Sulzfeld, Germany). After an acclimatization period of at least 7 days, the mice (n = 5 per group) were intravenously injected with 30 kBq [^225Ac]Ac-SibuDAB or 30 kBq [^225Ac]Ac-PSMA-617 and additional mice (n = 7 per group) remained untreated as controls. Mice were monitored by measuring their body mass and potential signs of pain or unease three times a week (Supplementary Material: Section S7). The mice were euthanized on Day 10, Day 28 or on Day 56, respectively, and variable parameters were assessed from blood and tissue samples.
# Hematological analysis was performed using blood samples taken by cardiac puncture immediately after euthanasia. Blood and bone marrow smears were prepared and stained using the Pappenheim protocol. The assessment was carried out by a board-certified veterinary anatomic pathologist (AnaPath Services GmbH, Liestal, Switzerland). Blood plasma parameters were determined in plasma after centrifugation of blood samples obtained shortly before euthanasia (Supplementary Material: Section S7).
# Tissue sections of formalin-fixed paraffin-embedded (FFPE) spleen, salivary glands and kidneys were prepared and stained with hematoxylin and eosin (H&E) by AnaPath Services GmbH (Liestal, Switzerland). The tissues were analyzed by a board certified veterinary pathologist using a pre-defined scoring system (Supplementary Material: Section S7). […]
# The percentage of radioligand bound to mouse or human plasma (A bound) was plotted against the molar ratios of MSA/HSA to radioligand and fitted with a nonlinear regression curve (specific binding with Hill slope, Bmax set to 100%) using GraphPad Prism software (version 8) to obtain the half maximum binding (B 50).
# Results: The results are reported in the main article.
# Purpose: A tolerability study with normal, immunocompetent FVB mice was con-ducted in order to assess potential side effects to the bone marrow, spleen, salivary glands and kidneys after the application of high activities of the 225Ac-labeled PSMA radioligands.
# Methods: Monitoring Body Mass and Signs of Unease: Mice were monitored by meas-uring their body mass (BM) three times a week. The body masses were expressed as the relative body mass, defined as [BMx/BM0], where BMx is the body mass in grams on a given Day x and BM0 is the body mass in grams on Day 0. Endpoint criteria, defined as (i) >15% loss in body mass, (ii) signs of unease and pain or a combination thereof based on a scoring system, were not reached in this stu dy.
# Hematology: Blood cell counts were determined in blood samples taken by cardiac puncture immediately after euthanasia and collected in EDTA tubes (Microvette® 100 K3 EDTA, Sarstedt, Germany). Leukocyte, lymphocyte, erythrocyte and thrombocyte counts as well as hemoglobin and hematocrit values were determined using a hematology ana-lyzer (VetScan HM5, Abaxis, United States). Blood smears were prepared on glass slides with cardiac blood. The bone marrow was collected from the femur, diluted in FCS/H2O (2:1 v/v) and smeared onto microscopy slides using a paintbrush. The slides were stained with a May Grünwald solution and subsequently with diluted Giemsa solution using the Pappenheim method and covered with coverslips using mounting medium (Pertex).
# The assessment of potential morphological ch anges of the blood cells and counting of the subgroups of leukocytes was performed by a board-certified veterinary pathologist (Ana-Path Services GmbH, Liestal, Switzerland).
# Histopathological Analysis: Spleen, salivary glands and kidneys were formalin-fixed and paraffin-embedded. Tissue sections were stained with hematoxylin & eosin (H&E) […]
# Blood Plasma Parameters: Blood plasma parameters were determined in plasma ob-tained from centrifuged retrobulbar blood samples collected in lithium-heparin tubes (Mi-crovette® 200 LH, SARSTEDT). The concentrations of blood urea nitrogen (BUN), alkaline […]
smiles,measurement,setting,value
CC(C)Cc1ccc(C(C)C(=O)NC(CCN)C(=O)NCCCCC(NC(=O)CN2CCN(CC(=O)[O-])CCN(CC(=O)[O-])CCN(CC(=O)[O-])CC2)C(=O)NCC2CCC(C(=O)NC(Cc3ccc4ccccc4c3)C(=O)NCCCCC(NC(=O)NC(CCC(=O)O)C(=O)O)C(=O)O)CC2)cc1.[225Ac+3] (centres unmarked) [[^225Ac]Ac-SibuDAB],Tolerability (body mass),"30 kBq per mouse, until Day 56",well tolerated
same,"Kidneys: Hyperplasia/hypertrophy, tubular, incidence","Day 10, 30 kBq",0
same,"Kidneys: Hyperplasia/hypertrophy, tubular, score average","Day 10, 30 kBq",0.0
same,"Kidneys: Hypertrophy/hyperplasia, tubular with ectasia, incidence","Day 10, 30 kBq",0
same,"Kidneys: Hypertrophy/hyperplasia, tubular with ectasia, score average","Day 10, 30 kBq",0.0
same,"Kidneys: Inflammatory cells, interstitium, incidence","Day 10, 30 kBq",0
same,"Kidneys: Inflammatory cells, interstitium, score average","Day 10, 30 kBq",0.0
same,"Kidneys: Inflammatory cells, pelvis, incidence","Day 10, 30 kBq",0
same,"Kidneys: Inflammatory cells, pelvis, score average","Day 10, 30 kBq",0.0
same,"Kidneys: Mineralization, papilla, incidence","Day 10, 30 kBq",0
same,"Kidneys: Mineralization, papilla, score average","Day 10, 30 kBq",0.0
same,"Kidneys: Tubular basophilia, incidence","Day 10, 30 kBq",0
same,"Kidneys: Tubular basophilia, score average","Day 10, 30 kBq",0.0
same,"Salivary glands: Ductal hyperplasia with inflammatory cells, incidence","Day 10, 30 kBq",0
same,"Salivary glands: Ductal hyperplasia with inflammatory cells, score average","Day 10, 30 kBq",0.0
same,"Salivary glands: Hypertrophy acinar, sublingual, incidence","Day 10, 30 kBq",0
same,"Salivary glands: Hypertrophy acinar, sublingual, score average","Day 10, 30 kBq",0.0
same,"Salivary glands: Mononuclear cell foci, incidence","Day 10, 30 kBq",1
same,"Salivary glands: Mononuclear cell foci, score average","Day 10, 30 kBq",1.0
same,"Salivary glands: Necrosis, multifocal, serous acinar cells, incidence","Day 10, 30 kBq",two out of five
same,"Salivary glands: Necrosis, multifocal, serous acinar cells, score average","Day 10, 30 kBq",1.0
same,"Salivary glands: Vacuolation, incidence","Day 10, 30 kBq",1
same,"Salivary glands: Vacuolation, score average","Day 10, 30 kBq",1.0
same,"Spleen: Extramedullary hematopoiesis, incidence","Day 10, 30 kBq",5
same,"Spleen: Extramedullary hematopoiesis, score average","Day 10, 30 kBq",1.2
same,"Spleen: Hyperplasia, lymphoid, incidence","Day 10, 30 kBq",1
same,"Spleen: Hyperplasia, lymphoid, score average","Day 10, 30 kBq",1.0
same,"Spleen: Pigment, incidence","Day 10, 30 kBq",5
same,"Spleen: Pigment, score average","Day 10, 30 kBq",1.0
same,mice with relative increase of neutrophilic blasts (metamyelocytes) in peripheral blood,"Day 10, 30 kBq",one out of five
same,myelopoiesis in bone marrow smears (group value),"Day 10, 30 kBq",66%
same,"Salivary glands: Necrosis, multifocal, serous acinar cells, incidence","Day 10, 30 kBq, listed as [225Ac]Ac-SibuDAB",2
same,Bone marrow % E,"Day 10, mouse M1",30%
same,Bone marrow % M,"Day 10, mouse M1",70%
same,"Bone marrow smear, Notes","Day 10, mouse M1","More blasts, neutrophilic row"
same,Bone marrow % E,"Day 10, mouse M2",50%
same,Bone marrow % M,"Day 10, mouse M2",50%
same,Bone marrow % E,"Day 10, mouse M3",40%
same,Bone marrow % M,"Day 10, mouse M3",60%
same,"Blood smear, Notes","Day 10, mouse M4",More neutrophilic blasts (Metamyelocyte)
same,Bone marrow % E,"Day 10, mouse M4",30%
same,Bone marrow % M,"Day 10, mouse M4",70%
same,"Bone marrow smear, Notes","Day 10, mouse M4","More blasts, neutrophilic row"
same,Bone marrow % E,"Day 10, mouse M5",20%
same,Bone marrow % M,"Day 10, mouse M5",80%
same,"Bone marrow smear, Notes","Day 10, mouse M5","More blasts, neutrophilic row"
same,Albumin concentration in blood plasma,"Day 28, 30 kBq",26 ± 1 g/L
same,Blood urea nitrogen,"Day 28, 30 kBq",9.1 ± 1.1 mmol/L
same,Erythrocyte counts,"Day 28, 30 kBq",8.7 ± 0.3 × 10^12/L
same,Hematocrit,"Day 28, 30 kBq",43 ± 1%
same,Hemoglobin,"Day 28, 30 kBq",11.2 ± 0.5 g/dL
same,"Kidneys: Hyperplasia/hypertrophy, tubular, incidence","Day 28, 30 kBq",0
same,"Kidneys: Hyperplasia/hypertrophy, tubular, score average","Day 28, 30 kBq",0.0
same,"Kidneys: Hypertrophy/hyperplasia, tubular with ectasia, incidence","Day 28, 30 kBq",0
same,"Kidneys: Hypertrophy/hyperplasia, tubular with ectasia, score average","Day 28, 30 kBq",0.0
same,"Kidneys: Inflammatory cells, interstitium, incidence","Day 28, 30 kBq",1
same,"Kidneys: Inflammatory cells, interstitium, score average","Day 28, 30 kBq",1.0
same,"Kidneys: Inflammatory cells, pelvis, incidence","Day 28, 30 kBq",2
same,"Kidneys: Inflammatory cells, pelvis, score average","Day 28, 30 kBq",1.0
same,"Kidneys: Mineralization, papilla, incidence","Day 28, 30 kBq",0
same,"Kidneys: Mineralization, papilla, score average","Day 28, 30 kBq",0.0
same,"Kidneys: Tubular basophilia, incidence","Day 28, 30 kBq",0
same,"Kidneys: Tubular basophilia, score average","Day 28, 30 kBq",0.0
same,"Salivary glands: Ductal hyperplasia with inflammatory cells, incidence","Day 28, 30 kBq",0
same,"Salivary glands: Ductal hyperplasia with inflammatory cells, score average","Day 28, 30 kBq",0.0
same,"Salivary glands: Hypertrophy acinar, sublingual, incidence","Day 28, 30 kBq",1
same,"Salivary glands: Hypertrophy acinar, sublingual, score average","Day 28, 30 kBq",1.0
same,"Salivary glands: Mononuclear cell foci, incidence","Day 28, 30 kBq",3
same,"Salivary glands: Mononuclear cell foci, score average","Day 28, 30 kBq",1.0
same,"Salivary glands: Necrosis, multifocal, serous acinar cells, incidence","Day 28, 30 kBq",completely absent
same,"Salivary glands: Necrosis, multifocal, serous acinar cells, score average","Day 28, 30 kBq",0.0
same,"Salivary glands: Vacuolation, incidence","Day 28, 30 kBq",0
same,"Salivary glands: Vacuolation, score average","Day 28, 30 kBq",0.0
same,"Spleen: Extramedullary hematopoiesis, incidence","Day 28, 30 kBq",5
same,"Spleen: Extramedullary hematopoiesis, score average","Day 28, 30 kBq",1.8
same,"Spleen: Hyperplasia, lymphoid, incidence","Day 28, 30 kBq",5
same,"Spleen: Hyperplasia, lymphoid, score average","Day 28, 30 kBq",1.2
same,"Spleen: Pigment, incidence","Day 28, 30 kBq",5
same,"Spleen: Pigment, score average","Day 28, 30 kBq",2.0
same,"Salivary glands: Necrosis, multifocal, serous acinar cells, incidence","Day 28, 30 kBq, listed as [225Ac]Ac-SibuDAB",0
same,Bone marrow % E,"Day 28, mouse M1",40%
same,Bone marrow % M,"Day 28, mouse M1",60%
same,Bone marrow % E,"Day 28, mouse M2",50%
same,Bone marrow % M,"Day 28, mouse M2",50%
same,Bone marrow % E,"Day 28, mouse M3",40%
same,Bone marrow % M,"Day 28, mouse M3",60%
same,Bone marrow % E,"Day 28, mouse M4",50%
same,Bone marrow % M,"Day 28, mouse M4",50%
same,Bone marrow % E,"Day 28, mouse M5",50%
same,Bone marrow % M,"Day 28, mouse M5",50%
same,"Kidneys: Hyperplasia/hypertrophy, tubular, incidence","Day 56, 30 kBq",1
same,"Kidneys: Hyperplasia/hypertrophy, tubular, score average","Day 56, 30 kBq",1.0
same,"Kidneys: Hypertrophy/hyperplasia, tubular with ectasia, incidence","Day 56, 30 kBq",0
same,"Kidneys: Hypertrophy/hyperplasia, tubular with ectasia, score average","Day 56, 30 kBq",0.0
same,"Kidneys: Inflammatory cells, interstitium, incidence","Day 56, 30 kBq",1
same,"Kidneys: Inflammatory cells, interstitium, score average","Day 56, 30 kBq",1.0
same,"Kidneys: Inflammatory cells, pelvis, incidence","Day 56, 30 kBq",1
same,"Kidneys: Inflammatory cells, pelvis, score average","Day 56, 30 kBq",1.0
same,"Kidneys: Mineralization, papilla, incidence","Day 56, 30 kBq",0
same,"Kidneys: Mineralization, papilla, score average","Day 56, 30 kBq",0.0
same,"Kidneys: Tubular basophilia, incidence","Day 56, 30 kBq",2
same,"Kidneys: Tubular basophilia, score average","Day 56, 30 kBq",1.0
same,"Salivary glands: Ductal hyperplasia with inflammatory cells, incidence","Day 56, 30 kBq",0
same,"Salivary glands: Ductal hyperplasia with inflammatory cells, score average","Day 56, 30 kBq",0.0
same,"Salivary glands: Hypertrophy acinar, sublingual, incidence","Day 56, 30 kBq",0
same,"Salivary glands: Hypertrophy acinar, sublingual, score average","Day 56, 30 kBq",0.0
same,"Salivary glands: Mononuclear cell foci, incidence","Day 56, 30 kBq",2
same,"Salivary glands: Mononuclear cell foci, score average","Day 56, 30 kBq",1.0
same,"Salivary glands: Necrosis, multifocal, serous acinar cells, incidence","Day 56, 30 kBq",0
same,"Salivary glands: Necrosis, multifocal, serous acinar cells, score average","Day 56, 30 kBq",0.0
same,"Salivary glands: Vacuolation, incidence","Day 56, 30 kBq",0
same,"Salivary glands: Vacuolation, score average","Day 56, 30 kBq",0.0
same,"Spleen: Extramedullary hematopoiesis, incidence","Day 56, 30 kBq",5
same,"Spleen: Extramedullary hematopoiesis, score average","Day 56, 30 kBq",1.8
same,"Spleen: Hyperplasia, lymphoid, incidence","Day 56, 30 kBq",0
same,"Spleen: Hyperplasia, lymphoid, score average","Day 56, 30 kBq",0.0
same,"Spleen: Pigment, incidence","Day 56, 30 kBq",5
same,"Spleen: Pigment, score average","Day 56, 30 kBq",2.0
same,Bone marrow % E,"Day 56, mouse M1",40%
same,Bone marrow % M,"Day 56, mouse M1",60%
same,Bone marrow % E,"Day 56, mouse M2",30%
same,Bone marrow % M,"Day 56, mouse M2",70%
same,Bone marrow % E,"Day 56, mouse M3",40%
same,Bone marrow % M,"Day 56, mouse M3",60%
same,Bone marrow % E,"Day 56, mouse M4",40%
same,Bone marrow % M,"Day 56, mouse M4",60%
same,Bone marrow % E,"Day 56, mouse M5",40%
same,Bone marrow % M,"Day 56, mouse M5",60%

# From PMC9688344, “[^225Ac]Ac-SibuDAB for Targeted Alpha Therapy of Prostate Cancer: Preclinical Evaluation and Comparison with [^225Ac]Ac-PSMA-617” (Cancers, 2022)
